According to article PMC9133015 (Nature Communications, 2022):
Where “and” joins values, the source holds several entries; their conditions need not be identical. Identical values can stand only once. Like-named read-outs stand apart in the source and are kept apart here.

Molecular target: T1, DYRK2 (Homo sapiens, UniProt Q92630)
T1 construct: purchased Reaction Biology Corporation (assay service)
T1 sequence (Q92630 1-601): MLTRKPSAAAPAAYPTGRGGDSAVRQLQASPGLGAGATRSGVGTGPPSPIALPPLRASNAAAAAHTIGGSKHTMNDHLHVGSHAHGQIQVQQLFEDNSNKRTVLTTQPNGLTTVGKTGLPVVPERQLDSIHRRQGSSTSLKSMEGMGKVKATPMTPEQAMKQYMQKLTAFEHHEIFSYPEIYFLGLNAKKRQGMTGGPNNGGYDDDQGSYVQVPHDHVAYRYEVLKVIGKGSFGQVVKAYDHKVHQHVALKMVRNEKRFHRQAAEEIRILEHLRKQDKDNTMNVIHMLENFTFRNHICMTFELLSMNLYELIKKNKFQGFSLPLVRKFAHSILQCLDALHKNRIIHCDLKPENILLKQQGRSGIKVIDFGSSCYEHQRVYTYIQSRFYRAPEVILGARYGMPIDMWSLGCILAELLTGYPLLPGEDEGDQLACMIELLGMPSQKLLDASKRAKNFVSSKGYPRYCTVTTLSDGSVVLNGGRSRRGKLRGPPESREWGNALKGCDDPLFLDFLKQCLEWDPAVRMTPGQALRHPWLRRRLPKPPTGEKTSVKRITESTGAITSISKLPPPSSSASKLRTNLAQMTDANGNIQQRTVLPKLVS
Test: DYRKs kinase activity assay (33P-ATP, DYRKtide substrate): DYRK2
Format: biochemical
Conditions: for % Inhibition / inhibition at 0.000508053 µM / inhibition at 0.00152416 µM / inhibition at 0.00457247 µM / inhibition at 0.0137174 µM / inhibition at 0.0411523 µM / inhibition at 0.123457 µM / inhibition at 0.37037 µM / inhibition at 1.11111 µM / inhibition at 3.33333 µM / inhibition at 10 µM: DYRK2 kinase, duplicate values; for inhibition at 0.00152416 µM / inhibition at 0.0137174 µM / inhibition at 0.0411523 µM / inhibition at 0.123457 µM / inhibition at 0.37037 µM / inhibition at 1.11111 µM / inhibition at 3.33333 µM / inhibition at 10 µM: read-out: % Inhibition; for DYRK2 inhibitory activity (in words): structural optimization of lead 12

[1] = Supplementary Table 1, read-out: IC50 (μM), DYRK2 kinase

| Compound | % Inhibition (Conc. 0.000508053 µM) | % Inhibition (Conc. 0.00152416 µM) | % Inhibition (Conc. 0.00457247 µM) | % Inhibition (Conc. 0.0137174 µM) | % Inhibition (Conc. 0.0411523 µM) | % Inhibition (Conc. 0.123457 µM) | % Inhibition (Conc. 0.37037 µM) | % Inhibition (Conc. 1.11111 µM) | % Inhibition (Conc. 3.33333 µM) | % Inhibition (Conc. 10 µM) | IC50 [1] [µM] | inhibition at 0.0137174 µM (Conc. 0.0137174 µM) [%] | inhibition at 0.0411523 µM (Conc. 0.0411523 µM) [%] | inhibition at 0.123457 µM (Conc. 0.123457 µM) [%] | inhibition at 0.37037 µM (Conc. 0.37037 µM) [%] | inhibition at 1.11111 µM (Conc. 1.11111 µM) [%] | inhibition at 3.33333 µM (Conc. 3.33333 µM) [%] | inhibition at 10 µM (Conc. 10 µM) [%] | other results |
| --- | --- | --- | --- | --- | --- | --- | --- | --- | --- | --- | --- | --- | --- | --- | --- | --- | --- | --- | --- |
| Cn1c(CN2CCN(C(=O)C3CCCCC3)CC2)nc2cc(NC(=O)Nc3ccccc3)ccc21 [Compound 13] | 1.82% and 2.74% | 3.66% and 2.25% | 7.30% and 8.12% | 10.53% and 13.70% | 5.97% and 6.86% | 12.38% and 8.48% | 14.58% and 13.01% | 21.59% and 24.67% | 29.05% and 32.01% | 31.39% and 34.31% | > 10 | – | – | – | – | – | – | – | – |
| Cc1ccccc1C1C=C(c2ccccc2)OC(c2ccccc2)=C1C=NCCc1c[nH]c2ccccc12 (stereo not drawn) [Compound 2] | -5.36% and -2.56% | -6.00% and -8.80% | -4.71% and -7.51% | 3.44% and 4.28% | 3.20% and 5.16% | 5.94% and 3.15% | 4.61% and 6.29% | 5.16% and 2.64% | 1.41% and 4.21% | 9.74% and 12.54% | > 10 | – | – | – | – | – | – | – | – |
| CCOC(=O)CC1=NN(c2ccccc2)C(=O)C1=c1sc(=C2Sc3ccccc3N2C)c(=O)n1CC [Compound 6] | -4.08% and 2.50% | 1.60% and 6.11% | 3.31% and 7.66% | 5.42% and 7.24% | -2.71% and 2.20% | 2.56% and 6.98% | 3.14% and 5.17% | -1.20% and 3.57% | 2.35% and 4.46% | 7.66% and 11.60% | > 10 | – | – | – | – | – | – | – | – |
| CC(C)c1ccc2c(c1)C(N1CCN(CCc3ccc(F)cc3)CC1)Cc1ccc(F)cc1S2 (stereo not drawn) [Compound 1] | -1.87% and -4.38% | -4.34% and -6.85% | -8.65% and -6.11% | -12.64% and -10.09% | -8.55% and -6.02% | -2.02% and 0.35% | 1.52% and 4.04% | 8.35% and 5.81% | 1.80% and 0.0379% | 28.07% and 27.88% | > 10 | – | – | – | – | – | – | – | – |
| Cc1ccc(CN(Cc2ccc(C=NNC(=O)c3c(C)nc4sccn34)o2)S(=O)(=O)c2ccc(C)cc2)cc1 [Compound 7] | -2.50% and -2.39% | -0.71% and 1.61% | 3.49% and 3.33% | 5.71% and 7.69% | -2.86% and -2.73% | 2.70% and 2.58% | 3.31% and 5.45% | -1.26% and -1.20% | 2.47% and 2.36% | 8.07% and 7.70% | > 10 | – | – | – | – | – | – | – | – |
| O=C(CSc1nnc2sc3ccccc3n12)N1CCN(C(=O)CSc2nnc3sc4ccccc4n23)CC1 [Compound 4] | 0.98% and -1.30% | 14.00% and 9.63% | 3.52% and 1.28% | 7.11% and 4.92% | 13.04% and 8.66% | 25.55% and 23.66% | 22.22% and 20.28% | 26.61% and 24.74% | 20.66% and 23.29% | 27.83% and 25.98% | > 10 | – | – | – | – | – | – | – | – |
| CC(C)COc1cccc(-c2cc(C(=O)Nc3sc(C(C)C)cc3C(N)=O)c3ccccc3n2)c1 [Compound 9] | 0.43% and 0.42% | 1.70% and 1.66% | -1.24% and 1.19% | -4.62% and -2.11% | -1.40% and 1.03% | 2.80% and 5.13% | 6.00% and 8.26% | 12.51% and 17.02% | 18.00% and 19.98% | 35.11% and 36.69% | > 10 | – | – | – | – | – | – | – | – |

Now from value to molecule, other results behind:

| % Inhibition (Conc. 0.000508053 µM) | % Inhibition (Conc. 0.00152416 µM) | % Inhibition (Conc. 0.00457247 µM) | % Inhibition (Conc. 0.0137174 µM) | % Inhibition (Conc. 0.0411523 µM) | % Inhibition (Conc. 0.123457 µM) | % Inhibition (Conc. 0.37037 µM) | % Inhibition (Conc. 1.11111 µM) | % Inhibition (Conc. 3.33333 µM) | % Inhibition (Conc. 10 µM) | IC50 [1] [µM] | inhibition at 0.0137174 µM (Conc. 0.0137174 µM) [%] | inhibition at 0.0411523 µM (Conc. 0.0411523 µM) [%] | inhibition at 0.123457 µM (Conc. 0.123457 µM) [%] | inhibition at 0.37037 µM (Conc. 0.37037 µM) [%] | inhibition at 1.11111 µM (Conc. 1.11111 µM) [%] | inhibition at 3.33333 µM (Conc. 3.33333 µM) [%] | inhibition at 10 µM (Conc. 10 µM) [%] | Compound | other results |
| --- | --- | --- | --- | --- | --- | --- | --- | --- | --- | --- | --- | --- | --- | --- | --- | --- | --- | --- | --- |
| 0.98% and 2.97% | 13.91% and 15.64% | 3.50% and 5.44% | 7.06% and 8.93% | 12.96% and 14.71% | 25.38% and 26.88% | 22.08% and 23.65% | 26.44% and 27.92% | 22.42% and 24.14% | 27.65% and 29.11% | > 10 | – | – | – | – | – | – | – | CC(C)Cc1nc(N2CCN(CC(=O)NCc3ccco3)CC2)c(C#N)c2c1COC(C)(C)C2 [Compound 14] | – |
| -1.53% and -4.09% | -4.76% and -6.22% | -1.13% and -0.37% | -10.53% and -12.16% | -9.17% and -11.37% | -2.00% and -9.98% | -8.29% and -9.76% | -3.66% and -9.01% | 0.93% and -1.24% | 16.42% and 14.23% | > 10 | – | – | – | – | – | – | – | COc1cc(-c2nnc(CSc3nc4c(OC)ccc(OC)c4[nH]3)o2)cc(OC)c1OC [Compound 15] | – |
| – | – | – | 12.10% | 21.24% | 36.98% | 58.36% | 75.32% | 88.49% | 94.11% | – | 9.69 | 19 | 36.4 | 56 | 75.1 | 88.2 | 93.9 | Cl.Fc1cnc(Nc2ccc(CN3CCNCC3)cn2)nc1-c1ccc2ncsc2c1 [Compound 18] | inhibition at 0.000508053 µM (Conc. 0.000508053 µM): -3.69%; inhibition at 0.00152416 µM (Conc. 0.00152416 µM): -1.56%; inhibition at 0.00457247 µM (Conc. 0.00457247 µM): -2.27% |
| 4.24% and 12.86% | 17.49% | 28.06% | 45.74% | 67.90% | 84.14% | 92.83% | 95.77% | 95.36% | 95.58% | – | 44.6 | 69.6 | 84.5 | 93.3 | 98 | 94.3 | 96.2 | CC(C)N1CCN(C(=O)c2ccc(Nc3ncc(F)c(-c4ccc5nc(N(C)C)sc5c4)n3)nc2)CC1 [Compound 25] | inhibition at 0.00152416 µM (Conc. 0.00152416 µM): 14%; inhibition at 0.00457247 µM (Conc. 0.00457247 µM): 27.4%; DYRK2 inhibitory activity (in words): further improved DYRK2 inhibitory activity |
| 9.47% | 18.47% | 32.91% | 41.99% | 56.16% | 70.45% | – | – | – | – | – | 41.4 | 55.9 | 70.4 | 84.9 | 92.2 | 95.8 | 96.2 | CCN1CCN(C(=O)c2ccc(Nc3ncc(F)c(-c4ccc5nc(C)sc5c4)n3)nc2)CC1 [Compound 23] | inhibition at 0.000508053 µM (Conc. 0.000508053 µM): 9.2%; inhibition at 0.00152416 µM (Conc. 0.00152416 µM): 20.2%; inhibition at 0.00457247 µM (Conc. 0.00457247 µM): 32.2%; IC50 (read-out: DYRK2 IC50): 0.022 µM |
| -1.98% and -2.03% | -0.44% and -0.45% | -0.11% and -0.23% | 0.54% | 9.25% | 18.48% | 37.11% | 48.09% | 58.92% | 60.62% | – | 0.53 | 8.33 | 18.1 | 36.6 | 47 | 57.6 | 59.4 | CC(C)(C)OC(=O)N1CCN(Cc2ccc(Nc3ncc(F)c(-c4ccc5ncsc5c4)n3)nc2)CC1 [Compound 17] | DYRK2 inhibitory activity (in words): significantly decreased activity |
